Reference: US20150190416A1, “FILAGGRIN PRODUCTION PROMOTER, THERAPEUTIC AGENT FOR DISEASES ASSOCIATED WITH REDUCTION IN PRODUCTION OF FILAGGRIN, AND METHOD FOR SCREENING FOR SAID THERAPEUTIC AGENT” (KYOTO UNIVERSITY, priority 2012, published 2015)

What was measured:
GPR142 = assay: Action on adenylate cyclase activity (cAMP) in GPR142-overexpressing HEK293T cells (Examples 8 and 9); type: cell-based, human; conditions: forskolin 10 μM, IBMX 1 mM
Method: In this example, the cAMP production-suppressing effect of Compound 1 was confirmed.
1) 6×10^4 cells/well of HEK293T cells were plated on a collagen-coated 24-well plate, a culture medium containing DMEM medium (Invitrogen) supplemented with penicillin (50 μg/ml), streptomycin (50 μg/ml), and fetal bovine serum (FBS) (10%, v/v) was added to the plate, and the cells were cultured under the conditions of 37° C. and 5% CO2.
2) A GPR142PCXN mammalian expression vector was prepared in the same manner as in the step 2) of Example 7.
3) After culture for 1 day under the conditions of the step 1), HEK293T cells were transfected with 0.2 μg of the GPR142PCXN mammalian expression vector per well by using a transfection reagent Fugene™ HD (Promega Corporation) according to the manufacturer's protocol. As a control, cells transfected only with the PCXN mammalian expression vector were used.
4) After culture for 1 day after the transfection described above, 1 mM of isobutylmethylxanthine (IBMX), which was a cAMP phosphodiesterase inhibitory substance, was added to HEK293T cells, and thereafter, the cells were cultured for 10 minutes at 37° C.
5) Next, the medium was exchanged for the culture medium to which 0.1 nM to 1000 nM of a DMSO solution of Compound 1, 10 μM of forskolin, and 1 mM of IBMX per well were added, and the cells were further cultured for 20 minutes at 37° C. As a control, a solvent (vehicle), 10 μM of forskolin, and 1 mM of IBMX were added.
6) The cells cultured in the step 5) were lysed by 0.1 mol/L of HCl. The cAMP concentration within the cells was measured by using Cyclic AMP EIA Kit (Cayman Chemical Company) according to the manufacturer's protocol. The result is shown as the ratio (%) of the cAMP concentration in the cells treated with Compound 1 with respect to the cAMP concentration in the control example defined as 100%.
In this example, the cAMP production-suppressing effect of Compound 2 or 3 was confirmed.
HEK293T cells were cultured in the same manner as in the steps 1) to 4) of Example 8. Next, the cells were cultured in the same manner as in the step 5) of Example 8 except that, in the step 5) of Example 8, each of a methanol solution of Compound 3, a DMSO solution of Compound 2, and a DMSO solution of Comparative Compound 2 was used at 1,000 nM per well instead of Compound 1. The cAMP concentration in the cultured cells was measured in the same manner as in the step 6) of Example 8.

FLG mRNA = FLG mRNA in three-dimensional cultured skin, real-time PCR (Example 10); type: cell-based; conditions: human skin three-dimensional model, 1 μM, recovered 7 days after start of culture
Method: In this example, the expression-increasing effect of Compound 1 on FLG mRNA was examined by using three-dimensional cultured skin. FLG mRNA expression was measured by a real-time PCR method.
1) A commercially available human skin three-dimensional model (TEST SKIN™ LSE-013, TOYOBO CO., LTD.) was cultured by using TEST SKIN LSE ASSAY MEDIUM (TOYOBO CO., LTD.) according to the manufacturer's protocol.
2) After culture for 2 days, the following medicament A) or C) was dissolved in DMSO, and was added to the medium at 1 μM to treat the cells with the medicament. • A) Compound 1 (N-quinolylbenzamide derivative) • C) Comparative Compound 2 (scriptaid)
As a control example, a solvent only (vehicle) was added.
3) After further culture for 2 days (4 days after the start of culture), the medium was exchanged for the medium to which the medicament was added. 3 days after further culture (7 days after the start of culture), the three-dimensional cultured skin was recovered, frozen with liquid nitrogen, and then stored at −30° C.
4) Total RNA was extracted from each of the cells treated with the medicaments by using an RNA extraction reagent (RNeasy™, QIAGEN N.V.) according to the manufacturer's protocol. cDNA was prepared from the total RNA by using a reverse transcriptase reagent (Prime Script™, Takara) according to the manufacturer's protocol. […]

FLG monomer = FLG monomer in three-dimensional cultured skin, Western blotting (Example 11); type: cell-based, human; conditions: 1 μM, immunoblotting
Method: In this example, the expression-increasing effect of Compound 1 on FLG monomer was examined by using a three-dimensional cultured skin. The expression of the FLG monomer was confirmed by Western blotting.
In this example, the same procedures as those in the steps 1) to 3) of Example 10 were conducted. It should be noted that as a medicament, D) Comparative Compound 3 (M344) was used, as well as A) Compound 1 and C) Comparative Compound 2 of Example 10.
4) The three-dimensional cultured skin obtained in the same manner as in the steps 1) to 3) of Example 10 was recovered, and was cut into pieces with scissors. Then, 100 μl of Lysis buffer (0.1 M Tris-HCl (pH 9.0), 6 M Urea, 1% 2-mercapto-ethanol, 1% SDS, 1 mM EDTA, and Protease inhibitor cocktail) were added and the cells were homogenized with an electrically powered pestle. The homogenized cells were centrifuged at 15,000 rpm at 4° C. for 20 minutes, and the supernatant was recovered to be used as a sample for measurement. The total protein in the sample was quantified by using a protein assay reagent (Bio-Rad Laboratories, Inc.) according to the manufacturer's protocol. The protein was adjusted so that each sample contained 15 μg protein/lane, and the samples were subjected to electrophoresis by SDS-PAGE (Invitrogen, NuPAE Novex Bis-Tris mini Gel 4 to 12%) under the conditions of 100 V and 2 hours. As a marker, Precision Plus Protein Standards (Bio-Rad Laboratories, Inc.) was used. The proteins separated by the electrophoresis were transferred to a PVDF membrane (blotting), and the expression of FLG monomer was confirmed by using an anti-FLG antibody (Filaggrin AKH1, Santa Crus). At that time, Anti-mouse IgG-HRP (GE Healthcare) was used as a secondary antibody, and Amersham ECL Plus Western Blotting Detection Reagents (GE Healthcare) was used as a color developer.

| SMILES | cAMP production (GPR142; GPR142-overexpressing HEK293T cells, 0.1 nM to 1000 nM, 20 minutes) | FLG mRNA expression (GAPDH ratio) (FLG mRNA) | production of FLG monomer (FLG monomer) | production of pro-FLG (FLG monomer) | cAMP production-suppressing action, in words (GPR142; GPR142-overexpressing HEK293T cells, 1,000 nM) | decrease of cAMP production (GPR142; GPR142-overexpressing HEK293T cells, 1,000 nM, 20 minutes) |
| --- | --- | --- | --- | --- | --- | --- |
| CCc1ccc(OCc2ccccc2C(=O)Nc2ccc3nc(C)cc(N)c3c2)cc1.Cl [Compound 1, N-(4-Amino-2-methyl-6-quinolyl)-2-[(4-ethylphenoxy)methyl]benzamide hydrochloride] | decreased cAMP production via GPR142 dose-dependently | increased FLG mRNA expression | clear production of FLG monomer was confirmed | production of a large amount of pro-FLG | – | – |
| O=C(CCCCCN1C(=O)c2cccc3cccc(c23)C1=O)NO [Comparative Compound 2, 6-(1,3-Dioxo-1H,3H-benzo[de]isoquinolin-2-yl)hexanoic acid hydroxyamide, reference compound] | – | increased FLG mRNA expression | clear production of FLG monomer was not observed | – | no cAMP production-suppressing action was observed | – |
| CC[C@H](C)[C@H]1O[C@]2(CC[C@@H]1C)C[C@@H]1C[C@@H](C/C=C(\C)[C@@H](O[C@H]3C[C@H](OC)[C@@H](O[C@H]4C[C@H](OC)[C@@H](O)[C@H](C)O4)[C@H](C)O3)[C@@H](C)/C=C/C=C3\CO[C@@H]4[C@H](O)C(C)=C[C@@H](C(=O)O1)[C@]34O)O2 [Compound 2, Ivermectin, reference compound] | – | – | – | – | – | about 20% |
